Measurements taken from patent publication US11584763B2, “Chromenopyridine derivatives as phosphatidylinositol phosphate kinase inhibitors” (HIBERCELL, INC., priority 2017, dated 2023).

Legend:
Format in all cases: biochemical
PIP4K 2A [1] = target: T1, PIP4K 2A (Homo sapiens, UniProt P48426); assay: ADP-glo kinase assay PIP4K 2A; design: 4 nM PIP4K2A (full length protein, SignalChem); purchased SignalChem; conditions: compounds listed under IC50 bin headings
T1 sequence (P48426 1-406): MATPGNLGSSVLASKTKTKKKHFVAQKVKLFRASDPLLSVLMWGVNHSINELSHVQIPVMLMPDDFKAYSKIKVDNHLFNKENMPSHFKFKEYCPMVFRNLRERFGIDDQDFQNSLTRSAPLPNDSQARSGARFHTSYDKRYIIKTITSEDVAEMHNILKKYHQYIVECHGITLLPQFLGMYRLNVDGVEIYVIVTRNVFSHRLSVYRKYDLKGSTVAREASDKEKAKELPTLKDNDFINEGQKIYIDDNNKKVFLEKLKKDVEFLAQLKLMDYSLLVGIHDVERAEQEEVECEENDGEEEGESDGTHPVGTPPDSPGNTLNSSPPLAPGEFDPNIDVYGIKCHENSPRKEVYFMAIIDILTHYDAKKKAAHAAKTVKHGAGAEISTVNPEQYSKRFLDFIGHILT
Procedure, shortened: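 Inhibition was calculated versus DMSO controls from ADP-Glo luminescence and fitted to IC50 over a 10-point, threefold series. Compound was first pre-incubated 15 min at room temperature with PIP4K2A (full-length; 4 nM in the enzyme/substrate mix) and PI(5)P diC8 (100 μM in that mix). The reaction then ran for 1 h after adding 60 μM ATP solution, in MOPS pH 7.2/MgCl2/Tween buffer.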

PIP4K 2A [2] = target: T1, PIP4K 2A; assay: Kinase Assay PIP4K2 A (PIP4KtypeIIA inhibition assay); design: made in house; host or cells: E. coli; conditions: compounds listed under IC50 bin headings
Procedure, shortened: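 GST-tagged enzyme from E. coli at 0.5 nM final was preincubated with compound for 1 h at 27 C, then reacted with 10 uM ATP, 80 uM PI5P and DOPE carrier in 50 mM HEPES pH 7.3, 5% DMSO. After 1 h, ADP was measured by ADP-Glo luminescence against a calibration curve. IC50 was fitted from % residual activity.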

PIP4K2B = target: T2, PIP4K2B (Homo sapiens, UniProt P78356); assay: Trans-FI P kinase assay PIP4K2B (PIP4KtypeIIB inhibition assay); conditions: compounds listed under IC50 bin headings; 100 uM GTP; read-out: Trans-FI P kinase assays: PIP4K2B IC50
T2 construct: made in house; host or cells: E. coli
T2 sequence (P78356 1-416): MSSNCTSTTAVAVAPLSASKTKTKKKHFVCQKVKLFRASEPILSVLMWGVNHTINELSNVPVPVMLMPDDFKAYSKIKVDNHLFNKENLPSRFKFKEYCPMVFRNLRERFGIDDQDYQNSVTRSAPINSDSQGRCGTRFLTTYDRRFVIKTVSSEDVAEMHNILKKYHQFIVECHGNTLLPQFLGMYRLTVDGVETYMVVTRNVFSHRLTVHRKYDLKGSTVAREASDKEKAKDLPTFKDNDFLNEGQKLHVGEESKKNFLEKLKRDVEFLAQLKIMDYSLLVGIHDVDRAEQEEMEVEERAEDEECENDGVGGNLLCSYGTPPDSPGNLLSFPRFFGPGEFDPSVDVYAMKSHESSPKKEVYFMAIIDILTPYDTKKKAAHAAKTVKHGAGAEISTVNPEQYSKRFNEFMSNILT
Procedure, shortened: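 Transcreener FI fluorescence read-out of GDP formed by E. coli-expressed GST-PIP4K2B (5 nM) using 100 uM GTP and 80 uM PI5P with DOPE carrier lipid, pH 7.3, 2 h reaction. Compounds (up to 4.8 uM) were preincubated with enzyme 1 h at 27 C; IC50 fitted from residual activity relative to no-inhibitor control.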

Structure (SMILES)	IC50 (PIP4K 2A [1]) [nM]	IC50 (PIP4K 2A [2]) [nM]	IC50 (PIP4K2B) [nM]
CC1Oc2cc(N3CCCC3=O)ccc2-c2cnc(Nc3cnc4c(c3)N(C(=O)C(C)(C)O)CCO4)cc21 (stereo not drawn) [Example 59, 1-(3-((1-(2-hydroxy-2-methylpropanoyl)-2,3-dihydro-1H-pyrido[2,3-b][1,4]oxazin-7-yl)amino)-5-methyl-5H-chromeno[4,3-c]pyridin-8-yl)pyrrolidin-2-one]	≤ 1	≤ 1	1 to 10
CC(O)C(=O)N1CCOc2ncc(Nc3cc4c(cn3)-c3ccc(N5CCCC5=O)cc3OC4C)cc21 (stereo not drawn) [Example 60, 1-(3-((1-(2-hydroxypropanoyl)-2,3-dihydro-1H-pyrido[2,3-b][1,4]oxazin-7-yl)amino)-5-methyl-5H-chromeno[4,3-c]pyridin-8-yl)pyrrolidin-2-one]	≤ 1	≤ 1	1 to 10
CC1Oc2cc(N3CCCC3=O)ccc2-c2cnc(Nc3cnc4c(c3)N(C(=O)CO)CCO4)cc21 (stereo not drawn) [Example 61, 1-(3-((1-(2-hydroxyacetyl)-2,3-dihydro-1H-pyrido[2,3-b][1,4]oxazin-7-yl)amino)-5-methyl-5H-chromeno[4,3-c]pyridin-8-yl)pyrrolidin-2-one]	≤ 1	≤ 1	1 to 10
CC1Oc2cc(N3CCCC3=O)ccc2-c2cnc(Nc3cnc4c(c3)OCCO4)cc21 (stereo not drawn) [Example 62, 1-(3-((2,3-dihydro-[1,4]dioxino[2,3-b]pyridin-7-yl)amino)-5-methyl-5H-chromeno[4,3-c]pyridin-8-yl)pyrrolidin-2-one]	1 to 10	≤ 1	10 to 100
CC1Oc2cc(N3CCCC3=O)ccc2-c2cnc(Nc3cnc4nccnc4c3)cc21 (stereo not drawn) [Example 63, 1-(5-methyl-3-(pyrido[2,3-b]pyrazin-7-ylamino)-5H-chromeno[4,3-c]pyridin-8-yl)pyrrolidin-2-one]	1 to 10	1 to 10	100 to 1000
CC1Oc2cc(N3CCCC3=O)ccc2-c2cnc(Nc3cnc4cccnc4c3)cc21 (stereo not drawn) [Example 64, 1-(3-((1,5-naphthyridin-3-yl)amino)-5-methyl-5H-chromeno[4,3-c]pyridin-8-yl)pyrrolidin-2-one]	10 to 100	1 to 10	100 to 1000
CC1Oc2cc(N3CCCC3=O)ccc2-c2cnc(Nc3cnc4scnc4c3)cc21 (stereo not drawn) [Example 65, 1-(5-methyl-3-(thiazolo[5,4-b]pyridin-6-ylamino)-5H-chromeno[4,3-c]pyridin-8-yl)pyrrolidin-2-one]	10 to 100	1 to 10	100 to 1000
CC1Oc2cc(C(=O)N(C)C)ccc2-c2cnc(Nc3cnc4c(c3)N(C(=O)C(C)(C)C)CCO4)cc21 (stereo not drawn) [Example 67, N,N,5-trimethyl-3-((1-pivaloyl-2,3-dihydro-1H-pyrido[2,3-b][1,4]oxazin-7-yl)amino)-5H-chromeno[4,3-c]pyridine-8-carboxamide]	≤ 1	≤ 1	1 to 10
CC1Oc2cc(C(=O)N(C)C)ccc2-c2cnc(Nc3cnc4c(c3)N(C(=O)C3CC3)CCO4)cc21 (stereo not drawn) [Example 68, 3-((1-(cyclopropanecarbonyl)-2,3-dihydro-1H-pyrido[2,3-b][1,4]oxazin-7-yl)amino)-N,N,5-trimethyl-5H-chromeno[4,3-c]pyridine-8-carboxamide]	≤ 1	≤ 1	1 to 10
COC(=O)N1CCOc2ncc(Nc3cc4c(cn3)-c3ccc(C(=O)N(C)C)cc3OC4C)cc21 (stereo not drawn) [Example 69, methyl 7-((8-(dimethylcarbamoyl)-5-methyl-5H-chromeno[4,3-c]pyridin-3-yl)amino)-2,3-dihydro-1H-pyrido[2,3-b][1,4]oxazine-1-carboxylate]	≤ 1	≤ 1	1 to 10
CC(=O)N1CCOc2ncc(Nc3cc4c(cn3)-c3ccc(C(=O)N(C)C)cc3OC4C)cc21 (stereo not drawn) [Example 70, 3-((1-acetyl-2,3-dihydro-1H-pyrido[2,3-b][1,4]oxazin-7-yl)amino)-N,N,5-trimethyl-5H-chromeno[4,3-c]pyridine-8-carboxamide]	≤ 1	≤ 1	1 to 10
CC1Oc2cc(C(=O)N(C)C)ccc2-c2cnc(Nc3cnc4c(c3)N(S(C)(=O)=O)CCO4)cc21 (stereo not drawn) [Example 71, N,N,5-trimethyl-3-((1-(methylsulfonyl)-2,3-dihydro-1H-pyrido[2,3-b][1,4]oxazin-7-yl)amino)-5H-chromeno[4,3-c]pyridine-8-carboxamide]	≤ 1	≤ 1	1 to 10
CC1Oc2cc(C(=O)N(C)C)ccc2-c2cnc(Nc3cnc4c(c3)N(S(=O)(=O)C3CC3)CCO4)cc21 (stereo not drawn) [Example 72, 3-((1-(cyclopropylsulfonyl)-2,3-dihydro-1H-pyrido[2,3-b][1,4]oxazin-7-yl)amino)-N,N,5-trimethyl-5H-chromeno[4,3-c]pyridine-8-carboxamide]	1 to 10	≤ 1	1 to 10
CC1(C)Oc2cc(N3CCCC3=O)ccc2-c2cnc(Nc3cnc4c(c3)N3C(=O)CC[C@H]3CO4)cc21 [Example 73, (S)-2-((5,5-dimethyl-8-(2-oxopyrrolidin-1-yl)-5H-chromeno[4,3-c]pyridin-3-yl)amino)-6,6a,7,8-tetrahydro-9H-pyrido[2,3-b]pyrrolo[1,2-d][1,4]oxazin-9-one]	≤ 1	≤ 1	1 to 10
O=C1CCCN1c1ccc2c(c1)OCc1cc(Nc3cnc4c(c3)N(S(=O)(=O)C3CC3)CCO4)ncc1-2 [Example 74, 1-(3-((1-(cyclopropylsulfonyl)-2,3-dihydro-1H-pyrido[2,3-b][1,4]oxazin-7-yl)amino)-5H-chromeno[4,3-c]pyridin-8-yl)pyrrolidin-2-one]	1 to 10	≤ 1	1 to 10
O=C1CCCN1c1ccc2c(c1)OCc1cc(Nc3cnc4c(c3)N3C(=O)CC[C@H]3CO4)ncc1-2 [Example 75, (S)-2-((8-(2-oxopyrrolidin-1-yl)-5H-chromeno[4,3-c]pyridin-3-yl)amino)-6,6a,7,8-tetrahydro-9H-pyrido[2,3-b]pyrrolo[1,2-d][1,4]oxazin-9-one]	≤ 1	≤ 1	1 to 10
O=C1CCCN1c1ccc2c(c1)OCc1cc(Nc3cnc4c(c3)N(C(=O)C3CC3)CCO4)ncc1-2 [Example 76, 1-(3-((1-(cyclopropanecarbonyl)-2,3-dihydro-1H-pyrido[2,3-b][1,4]oxazin-7-yl)amino)-5H-chromeno[4,3-c]pyridin-8-yl)pyrrolidin-2-one]	≤ 1	≤ 1	1 to 10
COC(=O)N1CCOc2ncc(Nc3cc4c(cn3)-c3ccc(N5CCCC5=O)cc3OC4)cc21 [Example 77, methyl 7-((8-(2-oxopyrrolidin-1-yl)-5H-chromeno[4,3-c]pyridin-3-yl)amino)-2,3-dihydro-1H-pyrido[2,3-b][1,4]oxazine-1-carboxylate]	≤ 1	≤ 1	1 to 10
CS(=O)(=O)N1CCOc2ncc(Nc3cc4c(cn3)-c3ccc(N5CCCC5=O)cc3OC4)cc21 [Example 78, 1-(3-((1-(methylsulfonyl)-2,3-dihydro-1H-pyrido[2,3-b][1,4]oxazin-7-yl)amino)-5H-chromeno[4,3-c]pyridin-8-yl)pyrrolidin-2-one]	≤ 1	≤ 1	1 to 10
CC(C)S(=O)(=O)N1CCOc2ncc(Nc3cc4c(cn3)-c3ccc(N5CCCC5=O)cc3OC4)cc21 [Example 79, 1-(3-((1-(isopropylsulfonyl)-2,3-dihydro-1H-pyrido[2,3-b][1,4]oxazin-7-yl)amino)-5H-chromeno[4,3-c]pyridin-8-yl)pyrrolidin-2-one]	1 to 10	≤ 1	10 to 100
